Holding throughout (format): cell-based, human
Data set [1] relates to amniotic epithelial cells. The data set can be described thus: Isolation of amniotic epithelial cells from amniotic tissue, living cells counted by trypan blue. On the procedure:
5 g of amniotic tissue was weighed and washed with HBSS. For stable isolation of amniotic epithelial cells, the washing process was carried out using HBSS buffer more similar to the constituents of the human body rather than using general PBS. The washed amniotic tissue was transferred into a 50-ml tube, and 10 mM DTT was added thereto. After treatment with DTT for 30 minutes, the supernatant was discarded, the amniotic tissue was finely cut, and the finely cut amniotic tissue was treated with fresh 0.05% trypsin-EDTA at 37° C. for 42 minutes under stirring, thus chemically degrading the tissue. The chemically degraded tissue was vortexed for 1 minute, and then it was primarily filtered through a 1-mm mesh and secondarily filtered through a 100-μm mesh, thus removing non-degraded tissue. The filtered tissue was centrifuged at 1800 rpm for 10 minutes. The single cell pellets at the bottom were well suspended, thus obtaining amniotic epithelial cells. Living cells were visually counted under a microscope using a hemocytometer according to trypan blue dye method and, as a result, the number of cells counted immediately after isolation was 3.72×10^7 cells (FIG. 1 (A)). On the other hand, in the case in which amniotic epithelial cells were isolated from amniotic tissue by treatment with trypsin alone without the addition of DTT, the number of cells counted immediately after isolation was 9.25×10^5 cells (FIG. 1 (B)).

Data set [2] relates to amniotic epithelial cell-derived adult stem cells. The data set can be described thus: Culture and subculture of amniotic epithelial cells in the presence of ROCK inhibitor. To be noted: 10 μM ROCK inhibitor added 4 days after isolation of the amniotic epithelial cells, FIG. 2. The method, then:
The obtained amniotic epithelial cells were cultured in a medium (Gibco) consisting of a 1:1 mixture of DMEM (Dulbecco modified Eagle medium) and F-12 (nutrient mixture) to which FBS, ascorbic acid, epidermal growth factor, insulin, an antibiotic and 10 μM of ROCK inhibitor Y-27632 have been added at the concentrations shown in Table 2 below. After 3 days of culture, the adult stem cells derived from the cultured amniotic epithelial cells were washed with HBSS buffer, and then incubated with Tryple-express (Gibco) or 0.25% trypsin-EDTA at 37° C. for 10 minutes. An FBS-containing medium was added thereto to inactivate trypsin, and then 5×10^6 stem cells derived from the amniotic epithelial cells were obtained and seeded into a fresh medium and subcultured. For each reseeding for subcultures, 10 μM of ROCK inhibitor was added to each fresh medium.

The test system is the same in data set [3]. Briefly: Proliferation of stem cells at various concentrations of ROCK inhibitor. The arrangement: proliferation of the cells: dose or concentration left out as unconfirmed. The method, then: In order to examine the proliferation potential of amniotic epithelial cell-derived adult stem cells at various concentrations of ROCK inhibitor, the amniotic epithelial cells obtained in Example 1 were subcultured in DMEM/F-12 media containing FBS, ascorbic acid, epidermal growth factor, insulin and an antibiotic, to which ROCK inhibitor Y-27632 has been added at various concentrations of 100 μM, 1 μM, 100 nM and 10 nM. After 1 day and 4 days of the subculture, the optimum ROCK inhibitor Y-27632 concentration for the culture of the adult stem cells was examined.

The test system is the same in data set [4]. Briefly: Effect of the addition of ROCK inhibitor on proliferation of stem cells (Comparative Example 1). To be noted: 10 μM; observed 1, 2 and 3 days after seeding. The method, then: In order to examine the effect of ROCK inhibitor, 4×10^6 amniotic epithelial cells obtained in Example 1 were subcultured in a DMEM/F-12 medium containing FBS, ascorbic acid, epidermal growth factor, insulin and an antibiotic for 4 days. Then, the cells were seeded into each of a medium containing 10 μM of the ROCK inhibitor Y-27632 and a medium containing no ROCK inhibitor and were observed 1 day, 2 days and 3 days after seeding.

The test system is the same in data set [5]. The data set can be described thus: Proliferation of stem cells according to ROCK inhibitor treatment period. The method, then: In order to further improve the proliferation ability of the amniotic epithelial cells obtained in Example 1, the method used in the embryonic stem cell study (Watanabe et al., Nature Biotechnology, 25:681, 2007) and the method of adding ROCK inhibitor during the culture were compared. In other words, the culture in which 10 μM of ROCK inhibitor was added only before reseeding was compared with the culture in which the ROCK inhibitor was added even after reseeding.

With `O[C@H](CS)[C@H](O)CS` (racemic) [DTT, dithiothreitol], in data set [1] (5 g amniotic tissue, 10 mM DTT 30 minutes, then 0.05% trypsin-EDTA 37° C. 42 minutes), the “number of cells counted immediately after isolation” value was 3.72×10^7 cells. Besides, in data set [1] (DTT and trypsin (FIG. 1 A, C) versus trypsin alone (B, D)), the “number of isolated amniotic epithelial cells and number of cells after culture, versus trypsin alone” value is “significantly larger”.

For `CC(N)C1CCC(C(=O)Nc2ccncc2)CC1` (stereo not drawn) [ROCK inhibitor, Y-27632], the “number of the adult stem cells” value in data set [2] is “rapidly increased”. In addition, the degree of proliferation entry in data set [3] (10 nM, after 1 day and 4 days of subculture, versus untreated control) is reported as “did not greatly differ from that in the control”. Moreover, the “cell morphology / differentiation” value in data set [3] (100 μM, after 1 day and 4 days of subculture) is listed as “a cell morphology change or cell differentiation appeared”. Further, the “proliferation of the cells” value in data set [3] (after 1 day and 4 days of subculture) is listed as “significantly increased”. Further, in data set [3] (tested at 100 μM, 1 μM, 100 nM and 10 nM), the “most preferred concentration for the culture of the adult stem cells” value is “about 10 μM”. Also, in data set [4], the “apoptosis of the amniotic epithelial cells” value is on record as “inhibited” and the “proliferation of adult stem cells” value is “significantly increased”. For the same molecule, the “proliferation ability of the adult stem cells” value in data set [5] (case (A): 10 μM ROCK inhibitor only before reseeding, cultured 1 day) is reported as “clearly increased compared to the control”. Further, in data set [5] (case (B): ROCK inhibitor continuously added during reseeding and culture, 1 day), the “proliferation ability of adult stem cells” value is “superior compared to the case (A)”.

B1: trypsin: 0.05% trypsin-EDTA (Gibco) used to isolate single cells from amniotic tissue (protein, UniProt P00761 9-231, looked up)
Trypsin: IVGGYTCAANSIPYQVSLNSGSHFCGGSLINSQWVVSAAHCYKSRIQVRLGEHNIDVLEGNEQFINAAKIITHPNFNGNTLDNDIMLIKLSSPATLNSRVATVSLPRSCAAAGTECLISGWGNTKSSGSSYPSLLQCLKAPVLSDSSCKSSYPGQITGNMICVGFLEGGKDSCQGDSGGPVVCNGQLQGIVSWGYGCAQKNKPGVYTKVCNYVNWIQQTIAAN
modifications: with EDTA
notes: 0.05% trypsin-EDTA (Gibco) used to isolate single cells from amniotic tissue
Take B1: the “number of cells counted immediately after isolation” value in data set [1] (treatment with trypsin alone without the addition of DTT) is given as 9.25×10^5 cells.
